Legend:
pancreatic progenitors = assay: Beta cell differentiation from human pluripotent stem cells, flow cytometry of C-peptide and NKX6.1 positive cells; type: cell-based; details: for effectiveness to induce differentiation of pancreatic progenitors to C-peptide positive cells, comparison within panel: day 27; for percentage / number of C-peptide positive cells compared to control: end of differentiation on day 27, compounds added day 15 to day 27
Experimental: Beta cells differentiated from human pluripotent stem cell lines as described in Example 2 (Sui et al., 2018b). Indicated compounds that function as cell cycle inhibitors were added individually from day 15 to day 27 with concentration listed below:
The DNA replication inhibitors used in this study: 0.1 μM, 0.5 μM and 1 μM Aphidicolin (A0781, Sigma-Aldrich); 2.5 μM Cisplatin (232120, EMD Millipore); 100 μM Ciprofloxacin (S2027, Selleck Chemicals); 10 μM Pyridostatin (S7444, Selleck Chemicals); 10 μM E2F Inhibitor (324461, EMD Millipore); 0.05 μM A485 (6387, Tocris); 2 μM RL5a (SML2187, Sigma-Aldrich); and 2 μM Etoposide (E55500, Research Products International). Indicated compounds were added individually from day 15 to day 27 with indicated concentration.
(§1) The beta cell clusters were dissociated using TrypLE™ Express into single cells. Cells were fixed with 4% PFA for 10 min and followed by permeabilization at −20° C. with cold methanol for 10 min. Primary antibodies were added at a dilution of 1:100 in autoMACs Rinsing Solution (Cat. No. 130-091-222, Miltenyi Biotec) containing 0.5% BSA at 4° C. for 1 hour. Secondary antibodies were added at a dilution of 1:500 at room temperature for 1 hour. The cells were filtered with BD Falcon 12×75 mm tube with cell strainer cap (Cat. No. 352235, BD) and subsequently analyzed by flow cytometer. Data were analyzed using Flowjo software. Negative controls were performed by only adding secondary antibodies.
Aphidicolin (APH), a DNA polymerase inhibitor, was used to inhibit DNA replication (Koundrioukoff et al., 2013). […] The insulin expressing cells were evenly distributed in the islet-like clusters with high percentage indicated by the expression of GFP, whereas some parts of the clusters in control remained GFP negative (FIG. 1D).

[1] = system: stem cell derived beta cells; assay: Stability of beta cell identity in long-term culture after removal of compound at day 27; type: cell-based, human; details: additional 30 days of culture (day 60)
Experimental: as §1
With APH, a high proportion of cells in the islet-like clusters were positive for C-peptide and NKX6.1, a transcription factor for maintaining the beta cell identity and functional maturation (Schaffer et al., 2013). […] Beta cells were cultured for additional 7 days until about day 34 and 30 days until about day 60 upon removal of these compounds at day 27. […] In contrast, in APH treated cells, there was no decrease in C-peptide or NKX6.1 on day 34 (FIG. 5A). […] After further culturing of the cells for extra 30 days, very few of cells in control group remained GFP expression and were positive for C-peptide.
The ability of other DNA replication inhibitors to stabilize the beta cell identity was investigated. The expressions of GFP were maintained after releasing cells from these inhibitors for 7 days until day 34. With additional 30 days of culture, the expressions of GFP were reduced in all conditions at certain levels, but the cells treated with Cis and Eto expressed higher GFP than the cells treated with APH compared to the other conditions (FIG. 5E, FIG. 5F).

| Compound | effectiveness to induce differentiation of pancreatic progenitors to C-peptide positive cells, comparison within panel (pancreatic progenitors) | percentage / number of C-peptide positive cells compared to control (pancreatic progenitors) | expressions of GFP (insulin) [1] |
| --- | --- | --- | --- |
| O=C1NC(=O)c2c1c1c3ccccc3[nH]c1c1[nH]c3cc(Br)ccc3c21 [CDK4] | less effective | – | – |
| CNC(=O)Nc1ccc2c(c1)CC[C@@]21OC(=O)N(CC(=O)N(Cc2ccc(F)cc2)[C@@H](C)C(F)(F)F)C1=O [P300 inhibitor] | – | no significant increase | – |
| RL5a | less effective | failed to increase | – |
| N.N.[Cl][Pt][Cl] [cisplatin, Cisplatin] | most effective | – | higher GFP |
| COc1cc([C@@H]2c3cc4c(cc3[C@@H](O[C@@H]3O[C@@H]5CO[C@@H](C)O[C@H]5[C@H](O)[C@H]3O)[C@H]3COC(=O)[C@H]23)OCO4)cc(OC)c1O [Etoposide] | most effective | – | higher GFP |

Source: patent US12605407B2, “Methods to induce terminal differentiation in stem cells by interfering with DNA replication, methods of inducing pancreatic differentiation, and differentiated cells obtained thereof” (priority 2018, dated 2026)
